Results from patent US20120027822A1, “Process for Producing Rapidly Disintegrating Spheroids (Pellets), Granules and/or Mixtures Thereof” (SPECIFAR S.A., priority 2009, published 2012).

assay: Polymorph study by X-Ray Powder Diffraction (XRPD); format: physicochemical; settings: XRPD of powder from spheroids of example 7a versus dihydrate and trihydrate patterns
Experimental: All the formulations described in examples 7a-7h released the API quantitatively in 15 minutes. In addition, a polymorph study was performed and the crystal phase of Esomeprazole Mg powder deriving from the spheroids of example 7a was established through the application of the X-Ray Powder Diffraction (XRPD) technique. The recorded XRD patterns shown in FIG. 2 were compared against the respective patterns of the dihydrate and trihydrate forms provided by the manufacturer. […] None of the characteristic trihydrate reflections, marked with arrows in FIG. 2, could be observed.

With `COc1ccc2[n-]c([S@@+]([O-])Cc3ncc(C)c(OC)c3C)nc2c1.COc1ccc2[n-]c([S@@+]([O-])Cc3ncc(C)c(OC)c3C)nc2c1.O.O.[Mg+2]` [Esomeprazole Magnesium Dihydrate] as the compound, how does the “crystal habit after the aqueous pelletization process” value read?
The value was “without deteriorating the crystal habit”.

assay: not given; settings: water; cited from earlier work

Which “aqueous solubility class (US Pharmacopoeia terms)” value (shortened to “aqueous solubility class”) does the source give for `COc1ccc2nc([S@@+]([O-])Cc3ncc(C)c(OC)c3C)[nH]c2c1` [Esomeprazole] here?
Its value is “slightly soluble or insoluble”.

With `CCC1=C(C)CN(C(=O)NCCc2ccc(S(=O)(=O)NC(=O)N[C@H]3CC[C@H](C)CC3)cc2)C1=O` [Glimepiride] as the compound, how does the “aqueous solubility class” value read?
The value was “practically insoluble”.

For `Cc1c(OCC(F)(F)F)ccnc1C[S+]([O-])c1nc2ccccc2[nH]1` (stereo not shown) [Lansoprazole], which “aqueous solubility class” value is on record?
The value was “practically insoluble”.

For `COc1ccc2[nH]c([S+]([O-])Cc3ncc(C)c(OC)c3C)nc2c1` (stereo not shown) [Omeprazole], which “aqueous solubility class” value is on record?
The value was “very slightly soluble”.

Which “aqueous solubility class” value does the source give for `COc1ccnc(C[S+]([O-])c2nc3ccc(OC(F)F)cc3[nH]2)c1OC` (stereo not shown) [Pantoprazole] here?
The value was “freely soluble”.

For `COCCCOc1ccnc(C[S+]([O-])c2nc3ccccc3[nH]2)c1C` (stereo not shown) [Rabeprazole], which “aqueous solubility class” value is on record?
Its value is “very soluble”.
